From patent US20070281988A1, “Combination Therapy for Vascular Complications Associated with Hyperglycemia” (priority 2004, published 2007)

Columns and labels:
Format in all cases: in vivo, rat
[1] = test system: sciatic nerve endoneurium; assay: Sciatic endoneurial blood flow by microelectrode polarography and hydrogen clearance in streptozotocin-diabetic rats; conditions: STZ-diabetic rats, ruboxistaurin 0.25 mg/kg, lovastatin 5.5 mg/kg, mean ± SEM; for Blood Flow (sciatic endoneurial nutritive): 2-week treatment after 6 weeks untreated diabetes; for Vascular Conductance: blood flow divided by mean arterial blood pressure, 2-week treatment
Procedure: (§1) Diabetes is induced in mature (19 week old) male Sprague-Dawley by streptozotocin injection (40-45 mg/kg i.p.). The diabetic state is monitored weekly using commercially available test strips for blood (tail vein) and urine glucose levels. Body weight is also be monitored daily. The criteria for the diabetic state are; blood glucose>19.9 mM, glycosuria, and no evidence of body weight gain. After 6 weeks of untreated diabetes, drugs are administered for a 2-week period.
Sciatic endoneurial blood flow is estimated in the limb contralateral to that for conduction velocity measurements by microelectrode polarography and hydrogen clearance. Day T J, Lagerlund T D, Low P A (1989), “Analysis of H2 clearance curves used to measure blood flow in rat sciatic nerve,” J Physiol 414:35-54; Cameron N E, Cotter M A, Low P A (1991), “Nerve blood flow in early experimental diabetes in rats: relation to conduction deficits.” Am J Physiol 261:E1-E8; Cameron N E, Cotter M A, Hohman T C (1996), “Interactions between essential fatty acid, prostanoid, polyol pathway and nitric oxide mechanisms in the neurovascular deficit of diabetic rats,” Diabetologia 39:172-182. Rats are artificially ventilated. The carotid artery is cannulated to monitor blood pressure. The level of anaesthesia is monitored by observing any reaction of blood pressure to manipulation, and supplementary thiobutabarbital anaesthetic is given as necessary. The sciatic nerve is exposed and the skin around the incision sutured to a metal ring to form a pool filled with mineral oil at 37° C. During recordings, pool temperature is maintained at 35-37° C. by radiant heat. A glass-insulated platinum microelectrode, polarized at 250 mV with respect to a subcutaneous reference electrode, is inserted into the sciatic nerve endoneurium between the sciatic notch and the nerve trifurcation above the knee. 10% H2 would be added to the inspired gas, the proportions of O2 and N2 being adjusted to 20% and 70% respectively. When the H2 current recorded by the electrode has stabilized, indicating equilibrium with arterial blood, the H2 supply is shut off and N2 delivery increased appropriately. H2 clearance is recorded until a stable baseline is reached, which is defined as no systematic decline in electrode current over 5 min. This procedure is then repeated at another nerve site. […] Assuming a tissue density of 1, nutritive blood flow would be calculated as d×100 (ml min^−1 100 g^−1). Vascular conductance is calculated by dividing blood flow by the mean arterial blood pressure over the recording period for that particular clearance curve. […]

sciatic nerve = assay: Motor nerve conduction velocity (sciatic nerve) in streptozotocin-diabetic rats; conditions: STZ-diabetic rats, lovastatin 5.5 mg/kg; for MNCV (motor nerve conduction velocity): 2-week treatment after 6 weeks untreated diabetes, ruboxistaurin 0.25 mg/kg, mean ± SEM; for correction of diabetic deficit in motor conduction velocity: individual doses: ruboxistaurin 0.25 mg/kg
Procedure: as §1
(§2) In final experiments, rats are anaesthetized with thiobutabarbital (50-100 mg kg^−1 i.p.). The trachea is cannulated for artificial respiration. As described in Cameron N E, Cotter M A, Robertson S (1989), “The effect of aldose reductase inhibition on the pattern of nerve conduction deficits in diabetic rats.” Q. J. Exp. Physiol. 74:917-926; and Cameron N E, Cotter M A, Robertson S (1991), “Effects of essential fatty acid supplementation on peripheral nerve and skeletal muscle function and capillarization in streptozotocin diabetic rats.” Diabetes 40:532-539, the sciatic nerve is exposed between the sciatic notch and knee. Bipolar stimulating electrodes are placed close to the nerve at the notch and knee. A concentric bipolar electrode is inserted into tibialis anterior muscle to monitor evoked electromyographic (EMG) activity. Potentials from each stimulating site are averaged 8 times. Motor conduction velocity is calculated by dividing the distance between stimulating electrodes by the average latency difference between the onset of EMG potentials evoked from the 2 sites. Nerve temperature is monitored using a thermocouple probe, and maintained in the range 36-38° C. by radiant heat. Body temperature is also maintained around 37° C. using a heated blanket. Sensory conduction velocity is measured for sensory saphenous nerve between groin and mid calf in a similar fashion, except that direct nerve evoked potentials are recorded at the ankle using a unipolar platinum hook electrode.

sensory saphenous nerve = assay: Sensory nerve conduction velocity (saphenous nerve) in streptozotocin-diabetic rats; conditions: STZ-diabetic rats, lovastatin 5.5 mg/kg; for SNCV (sensory nerve conduction velocity): 2-week treatment after 6 weeks untreated diabetes, ruboxistaurin 0.25 mg/kg, mean ± SEM; for correction of diabetic deficit in sensory conduction velocity: individual doses: ruboxistaurin 0.25 mg/kg
Procedure: as §1, §2

Compound	Blood Flow (sciatic endoneurial nutritive) [1]	Vascular Conductance [1]	MNCV (motor nerve conduction velocity) (sciatic nerve)	correction of diabetic deficit in motor conduction velocity (sciatic nerve)	SNCV (sensory nerve conduction velocity) (sensory saphenous nerve)	correction of diabetic deficit in sensory conduction velocity (sensory saphenous nerve)
CC[C@H](C)C(=O)O[C@H]1C[C@@H](C)C=C2C=C[C@H](C)[C@H](CC[C@@H]3C[C@@H](O)CC(=O)O3)[C@H]21 [LOV, lovastatin]	10.4 ± 0.6 ml/min/100 g	0.091 ± 0.006 ml/min/100 g/mm Hg	54.0 ± 0.4 m/s	~20%	54.6 ± 0.4 m/s	~20%
CN(C)C[C@@H]1CCn2cc(c3ccccc32)C2=C(C(=O)NC2=O)c2cn(c3ccccc23)CCO1 [LY, (S)-9-((Dimethylamino)methyl)-6,7,10,11-tetrahydro-9H,18H-5,21:12,17-dimethenodibenzo(e,k)pyrrolo(3,4-h)(1,4,13)oxadiaza-cyclohexadecine-18,20(19H)-dione]	10.7 ± 0.4 ml/min/100 g	0.101 ± 0.008 ml/min/100 g/mm Hg	53.5 ± 0.3 m/s	~20%	54.8 ± 0.3 m/s	~20%
